Where a name gives a salt, the structure may show the parent alone.
molecular target: rat TRPV1 (Rattus norvegicus (Rat), UniProt O35433); settings: read-out: Rat IC50
Sequence (O35433 whole entry): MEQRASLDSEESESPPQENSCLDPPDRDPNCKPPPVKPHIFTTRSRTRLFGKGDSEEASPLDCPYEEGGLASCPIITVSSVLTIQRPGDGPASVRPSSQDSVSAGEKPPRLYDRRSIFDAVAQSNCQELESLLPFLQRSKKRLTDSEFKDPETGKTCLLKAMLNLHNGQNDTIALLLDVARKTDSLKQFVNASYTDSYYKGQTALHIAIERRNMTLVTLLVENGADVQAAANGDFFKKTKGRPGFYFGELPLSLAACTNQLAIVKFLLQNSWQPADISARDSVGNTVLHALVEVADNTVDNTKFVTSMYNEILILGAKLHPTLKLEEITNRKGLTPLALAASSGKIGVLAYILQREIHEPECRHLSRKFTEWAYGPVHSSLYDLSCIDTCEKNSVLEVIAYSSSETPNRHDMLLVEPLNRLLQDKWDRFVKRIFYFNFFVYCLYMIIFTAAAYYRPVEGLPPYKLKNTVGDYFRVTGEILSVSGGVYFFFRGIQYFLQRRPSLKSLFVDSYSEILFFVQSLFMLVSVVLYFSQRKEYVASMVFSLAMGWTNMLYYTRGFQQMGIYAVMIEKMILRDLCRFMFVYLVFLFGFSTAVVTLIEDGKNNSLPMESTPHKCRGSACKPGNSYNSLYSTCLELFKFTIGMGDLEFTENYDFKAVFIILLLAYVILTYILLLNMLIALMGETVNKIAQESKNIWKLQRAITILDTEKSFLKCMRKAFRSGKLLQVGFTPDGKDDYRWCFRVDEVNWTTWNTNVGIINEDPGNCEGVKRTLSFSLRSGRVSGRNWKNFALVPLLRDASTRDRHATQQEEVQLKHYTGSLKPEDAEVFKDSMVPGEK

Going from `CC(Oc1nc2c(c(Nc3ccc(S(=O)(=O)C(F)(F)F)cc3)n1)CCN(c1ncccc1C(F)(F)F)CC2)C1CC1` (stereo not shown) [Example 317, 2-[(1-Cyclopropylethyl)oxy]-7-[3-(trifluoromethyl)pyridin-2-yl]-N-{4-[(trifluoromethyl)sulfonyl]phenyl}-6,7,8,9-tetrahydro-5H-pyrimido[4,5-d]azepin-4-amine] to `O=S(=O)(c1ccc(Nc2nc(OC3CCOCC3)nc3c2CCN(c2ncccc2C(F)(F)F)CC3)cc1)C(F)(F)F` [Example 322, 2-(Tetrahydro-2H-pyran-4-yloxy)-7-[3-(trifluoromethyl)pyridin-2-yl]-N-{4-[(trifluoromethyl)sulfonyl]phenyl}-6,7,8,9-tetrahydro-5H-pyrimido[4,5-d]azepin-4-amine], the IC50 falls from 610 nM to 10 nM (61-fold).

Compared with `CN(C)c1nc2c(c(NC3Cc4ccccc4C3)n1)CCN(c1ncccc1C(F)(F)F)CC2` [Example 82B, N^4-Indan-2-yl-N^2,N^2-dimethyl-7-(3-trifluoromethyl-pyridin-2-yl)-6,7,8,9-tetrahydro-5H-pyrimido[4,5-d]azepine-2,4-diamine trifluoroacetic acid salt], `COc1ccc(Nc2nc(N(C)C)nc3c2CCN(c2ncccc2C(F)(F)F)CC3)cc1` [Example 81B, N^4-(4-Methoxy-phenyl)-N^2,N^2-dimethyl-7-(3-trifluoromethyl-pyridin-2-yl)-6,7,8,9-tetrahydro-5H-pyrimido[4,5-d]azepine-2,4-diamine trifluoroacetic acid salt] is 2.9-fold lower in IC50: 2800 nM for the first, 970 nM for the second.

First: Cc1ccc(Nc2nc(C(C)C)nc3c2CCN(c2ncccc2C(F)(F)F)CC3)cc1 [Example 151, 2-(1-Methylethyl)-N-(4-methylphenyl)-7-[3-(trifluoromethyl)pyridin-2-yl]-6,7,8,9-tetrahydro-5H-pyrimido[4,5-d]azepin-4-amine hydrochloride salt]
Second: CC(C)c1nc2c(c(Nc3ccc(N)cc3)n1)CCN(c1ncccc1C(F)(F)F)CC2 [Example 198, N-{2-(1-Methylethyl)-7-[3-(trifluoromethyl)pyridin-2-yl]-6,7,8,9-tetrahydro-5H-pyrimido[4,5-d]azepin-4-yl}benzene-1,4-diamine trifluoroacetic acid salt]
The IC50 of the first is 11-fold lower: 820 nM for the first, 9160 nM for the second. The first is the more potent here.

`CN(C)c1nc2c(c(Nc3ccc(C(C)(C)C)cc3)n1)CCN(c1ncccc1C(F)(F)F)CC2` [Example 48, N^4-(4-tert-Butyl-phenyl)-N^2,N^2-dimethyl-7-(3-trifluoromethyl-pyridin-2-yl)-6,7,8,9-tetrahydro-5H-pyrimido[4,5-d]azepine-2,4-diamine] and `CC(C)(C)c1ccc(Nc2ncnc3c2CCN(c2ncccc2C(F)(F)F)CC3)cc1` [Example 1, (4-tert-Butyl-phenyl)-[7-(3-trifluoromethyl-pyridin-2-yl)-6,7,8,9-tetrahydro-5H-pyrimido[4,5-d]azepin-4-yl]-amine] are within 1.5-fold of each other in IC50: 74 nM for the first, 90 nM for the second.

Compared with `CC(C)c1nc2c(c(Nc3ccc(C(C)(C)C)cc3)n1)CCN(c1ncc(N)cc1C(F)(F)F)CC2` [Example 201, 7-[5-Amino-3-(trifluoromethyl)pyridin-2-yl]-N-[4-(1,1-dimethylethyl)phenyl]-2-(1-methylethyl)-6,7,8,9-tetrahydro-5H-pyrimido[4,5-d]azepin-4-amine], `CC(C)c1nc2c(c(Nc3ccc(C(=O)N(C)C)cc3)n1)CCN(c1ncccc1C(F)(F)F)CC2` [Example 127, N,N-Dimethyl-4-({2-(1-methylethyl)-7-[3-(trifluoromethyl)pyridin-2-yl]-6,7,8,9-tetrahydro-5H-pyrimido[4,5-d]azepin-4-yl}amino)benzamide] is 60-fold higher in IC50: 320 nM for the first, 19200 nM for the second.

First: CS(=O)(=O)c1cccnc1N1CCc2ncnc(Nc3ccc(C(F)(F)F)cc3)c2CC1 [Example 283, 7-[3-(Methylsulfonyl)pyridin-2-yl]-N-[4-(trifluoromethyl)phenyl]-6,7,8,9-tetrahydro-5H-pyrimido[4,5-d]azepin-4-amine]
Second: CC(C)(C)c1ccc(Nc2nc(N3CCCC3)nc3c2CCN(c2ncccc2C(F)(F)F)CC3)cc1 [Example 248, N-[4-(1,1-Dimethylethyl)phenyl]-2-pyrrolidin-1-yl-7-[3-(trifluoromethyl)pyridin-2-yl]-6,7,8,9-tetrahydro-5H-pyrimido[4,5-d]azepin-4-amine]
The IC50 of the first is 16-fold higher: 8520 nM for the first, 530 nM for the second. The second is the more potent here.

Going from `CSc1nc2c(c(Nc3ccc(C(F)(F)F)cc3C)n1)CCN(c1ncccc1C(F)(F)F)CC2` [Example 204, 2-(Methylsulfanyl)-N-[2-methyl-4-(trifluoromethyl)phenyl]-7-[3-(trifluoromethyl)pyridin-2-yl]-6,7,8,9-tetrahydro-5H-pyrimido[4,5-d]azepin-4-amine] to `Cc1cc(C(F)(F)F)ccc1Nc1nc(N(C)C2CCCCC2)nc2c1CCN(c1ncccc1C(F)(F)F)CC2` [Example 267, N^2-Cyclohexyl-N^2-methyl-N^4-[2-methyl-4-(trifluoromethyl)phenyl]-7-[3-(trifluoromethyl)pyridin-2-yl]-6,7,8,9-tetrahydro-5H-pyrimido[4,5-d]azepine-2,4-diamine], the IC50 rises from 560 nM to 1870 nM (3.3-fold).

Going from `CC(C)c1nc2c(c(NCc3ccc(C(F)(F)F)cc3)n1)CCN(c1ncccc1C(F)(F)F)CC2` [Example 117, 2-(1-Methylethyl)-N-{[4-(trifluoromethyl)phenyl]methyl}-7-[3-(trifluoromethyl)pyridin-2-yl]-6,7,8,9-tetrahydro-5H-pyrimido[4,5-d]azepin-4-amine] to `CC(C)c1nc2c(c(Nc3ccc(C(F)(F)F)c(F)c3)n1)CCN(c1ncccc1C(F)(F)F)CC2` [Example 140, N-[3-Fluoro-4-(trifluoromethyl)phenyl]-2-(1-methylethyl)-7-[3-(trifluoromethyl)pyridin-2-yl]-6,7,8,9-tetrahydro-5H-pyrimido[4,5-d]azepin-4-amine], the IC50 falls from 13500 nM to 190 nM (71-fold).

`FC(F)(F)c1ccc(Nc2nc(N3CCCOCC3)nc3c2CCN(c2ncccc2C(F)(F)F)CC3)cc1Cl` [Example 245, N-[3-Chloro-4-(trifluoromethyl)phenyl]-2-(1,4-oxazepan-4-yl)-7-[3-(trifluoromethyl)pyridin-2-yl]-6,7,8,9-tetrahydro-5H-pyrimido[4,5-d]azepin-4-amine trifluoroacetic acid salt] and `FC(F)(F)c1ccc(Nc2nc(N3CCCCC3)nc3c2CCN(c2ncccc2C(F)(F)F)CC3)cc1` [Example 39, [2-Piperidin-1-yl-7-(3-trifluoromethyl-pyridin-2-yl)-6,7,8,9-tetrahydro-5H-pyrimido[4,5-d]azepin-4-yl]-(4-trifluoromethyl-phenyl)-amine] are within 1.5-fold of each other in IC50: 20 nM for the first, 18 nM for the second.

Compared with `CC(C)(C)c1ccc(Nc2nc(N3CCCCC3)nc3c2CCN(c2ncccc2C(F)(F)F)CC3)cc1` [Example 42, (4-tert-Butyl-phenyl)-[2-piperidin-1-yl-7-(3-trifluoromethyl-pyridin-2-yl)-6,7,8,9-tetrahydro-5H-pyrimido[4,5-d]azepin-4-yl]-amine], `FC(F)(F)c1ccc(Nc2nc(N3C4CCC3CC4)nc3c2CCN(c2ncccc2C(F)(F)F)CC3)cc1` [Example 268, 2-(7-Azabicyclo[2.2.1]hept-7-yl)-N-[4-(trifluoromethyl)phenyl]-7-[3-(trifluoromethyl)pyridin-2-yl]-6,7,8,9-tetrahydro-5H-pyrimido[4,5-d]azepin-4-amine] is 3.1-fold higher in IC50: 49 nM for the first, 150 nM for the second.

Compared with `FC(F)(F)c1ccc(Nc2nc(Oc3ccccc3)nc3c2CCN(c2ncccc2C(F)(F)F)CC3)cc1` [Example 342, 2-(Phenyloxy)-N-[4-(trifluoromethyl)phenyl]-7-[3-(trifluoromethyl)pyridin-2-yl]-6,7,8,9-tetrahydro-5H-pyrimido[4,5-d]azepin-4-amine trifluoroacetic acid salt], `Cc1nc2c(c(Nc3ccc(C(F)(F)F)cn3)n1)CCN(c1ncccc1C(F)(F)F)CC2` [Example 69, [2-Methyl-7-(3-trifluoromethyl-pyridin-2-yl)-6,7,8,9-tetrahydro-5H-pyrimido[4,5-d]azepin-4-yl]-(5-trifluoromethyl-pyridin-2-yl)-amine] is 8.3-fold higher in IC50: 60 nM for the first, 500 nM for the second.

Going from `CC(C)N(C)c1nc2c(c(Nc3ccc(C(F)(F)F)nc3)n1)CCN(c1ncccc1C(F)(F)F)CC2` [Example 266, N^2-Methyl-N^2-(1-methylethyl)-7-[3-(trifluoromethyl)pyridin-2-yl]-N^4-[6-(trifluoromethyl)pyridin-3-yl]-6,7,8,9-tetrahydro-5H-pyrimido[4,5-d]azepine-2,4-diamine] to `CN(C)c1nc2c(c(Nc3ccc(C(F)(F)F)c(Cl)c3)n1)CCN(c1ncccc1C(F)(F)F)CC2` [Example 45, N^4-(3-Chloro-4-trifluoromethyl-phenyl)-N^2,N^2-dimethyl-7-(3-trifluoro-methyl-pyridin-2-yl)-6,7,8,9-tetrahydro-5H-pyrimido[4,5-d]azepine-2,4-diamine], the IC50 falls from 450 nM to 90 nM (5-fold). The second is the more potent here.

Compared with `Cc1cc(C(F)(F)F)ccc1Nc1nc(OC(C)C2CCCCC2)nc2c1CCN(c1ncccc1C(F)(F)F)CC2` (stereo not shown) [Example 309, 2-[(1-Cyclohexylethyl)oxy]-N-[2-methyl-4-(trifluoromethyl)phenyl]-7-[3-(trifluoromethyl)pyridin-2-yl]-6,7,8,9-tetrahydro-5H-pyrimido[4,5-d]azepin-4-amine], `Cc1cc(C(F)(F)F)ccc1Nc1nc(OC2CCOCC2)nc2c1CCN(c1ncccc1C(F)(F)F)CC2` [Example 312, N-[2-Methyl-4-(trifluoromethyl)phenyl]-2-(tetrahydro-2H-pyran-4-yloxy)-7-[3-(trifluoromethyl)pyridin-2-yl]-6,7,8,9-tetrahydro-5H-pyrimido[4,5-d]azepin-4-amine] is 3.2-fold lower in IC50: 1420 nM for the first, 450 nM for the second. The second is the more potent here.

For `CC(C)c1nc2c(c(Nc3ccc(C(F)(F)F)c(Cl)c3)n1)CCN(c1ncccc1C(F)(F)F)CC2` [Example 128, N-[3-Chloro-4-(trifluoromethyl)phenyl]-2-(1-methylethyl)-7-[3-(trifluoromethyl)pyridin-2-yl]-6,7,8,9-tetrahydro-5H-pyrimido[4,5-d]azepin-4-amine], the IC50 was 150 nM.

same assay, conditions: read-out: Rat IC50; hydrochloride salt

Compound `FC(F)(F)c1ccc(Nc2nc(C3CC3)nc3c2CCN(c2ncccc2C(F)(F)F)CC3)cc1` [Example 5A, [2-Cyclopropyl-7-(3-trifluoromethyl-pyridin-2-yl)-6,7,8,9-tetrahydro-5H-pyrimido[4,5-d]azepin-4-yl]-(4-trifluoromethyl-phenyl)-amine hydrochloride salt] has an IC50 of 190 nM.

— patent US9422293B2 (priority 2006, dated 2016)
